Laboratory results as given in ChEMBL document CHEMBL1124165, “1-(2,3-Anhydro-beta-D-lyxofuranosyl)cytosine derivatives as potential inhibitors of the human immunodeficiency virus” (J Med Chem, 1988).

test system: ATH-8 cell line; test: Tested in vitro for concentration with significant protective effect on ATH8 cells exposed to HIV; type: functional, cell-based; conditions: Homo sapiens

| SMILES | Concentration [µM] |
| --- | --- |
| Nc1ccn([C@@H]2O[C@H](CO)[C@H]3OC23)c(=O)n1 (some centres undefined) | 5 |

organism: Homo sapiens; test: Tested in vitro for concentration with significant protective effect on CD4+ cells exposed to HIV; type: functional; conditions: not given

| SMILES | Concentration [µM] |
| --- | --- |
| Nc1ccn([C@@H]2O[C@H](CO)[C@H]3OC23)c(=O)n1 (some centres undefined) | 5 |

test system: ATH-8 cell line; test: Tested in vitro for concentration with significant protective effect on ATH8 cells exposed to HIV; No significant effect at concentrations 100 uM; type: functional, cell-based; conditions: Homo sapiens

| SMILES | Concentration |
| --- | --- |
| [N-]=[N+]=N[C@@H]1C(O)[C@H](n2ccc(=O)[nH]c2=O)O[C@@H]1CO (some centres undefined) | No significant effect at concentrations 100 uM |
| COc1ccn([C@@H]2O[C@H](CO)[C@H]3OC23)c(=O)n1 (some centres undefined) | No significant effect at concentrations 100 uM |
| O=c1[nH]c(=O)n([C@@H]2O[C@H](CO)[C@H]3OC23)cc1Br (some centres undefined) | No significant effect at concentrations 100 uM |
| Cc1cn([C@@H]2O[C@H](CO)C[C@@H]2O)c(=O)[nH]c1=O | No significant effect at concentrations 100 uM |
| [N-]=[N+]=N[C@@H]1C(O)[C@H](n2ccc(N)nc2=O)O[C@@H]1CO (some centres undefined) | No significant effect at concentrations 100 uM |
| CNc1ccn([C@@H]2O[C@H](CO)[C@H]3OC23)c(=O)n1 (some centres undefined) | No significant effect at concentrations 100 uM |
| Cc1cn([C@@H]2O[C@H](CO)[C@H](N=[N+]=[N-])C2O)c(=O)[nH]c1=O (some centres undefined) | No significant effect at concentrations 100 uM |
| O=c1nc(NO)ccn1[C@@H]1O[C@H](CO)[C@H]2OC12 (some centres undefined) | No significant effect at concentrations 100 uM |
| C[C@H]1[C@H](O)[C@H](n2ccc(=O)[nH]c2=O)O[C@@H]1CO | No significant effect at concentrations 100 uM |
| Nc1ccn([C@@H]2O[C@H](CO)C[C@@H]2O)c(=O)n1 | No significant effect at concentrations 100 uM |
| Cc1cn([C@@H]2O[C@H](CO)[C@H]3OC23)c(=O)[nH]c1=O (some centres undefined) | No significant effect at concentrations 100 uM |
| O=c1ccn([C@@H]2O[C@H](CO)[C@H]3OC23)c(=O)[nH]1 (some centres undefined) | No significant effect at concentrations 100 uM |
